Source: patent publication US9732061B2, “Cinnoline derivatives useful as CB-1 receptor inverse agonists” (Janssen Pharmaceutica NV, priority 2015, dated 2017)

Assays:
[1] = target: Human CB1R (Cannabanoid receptor 1) (Homo sapiens (Human), UniProt P21554); assay: CB-1 in vitro cAMP (HTRF) assay; format: cell-based; conditions: HEK-293 cells stably transfected with human CB1R, 250 nM Forskolin, mean where tested more than once
Source text: (§1) CB1 and CB2 receptors are Gi-coupled GPCR. Activation of CB1 and CB2 receptors results in a decrease in cAMP production. An inverse agonist of the CB1 or CB2 receptor results in the opposite effect, an increase of cAMP production. The principle of this assay is based on HTRF® technology (Homogeneous Time-Resolved Fluorescence). The method is a competitive immunoassay between native cAMP produced by cells and the cAMP labeled with the fluorophore d2. The tracer binding is quantified by a Mab anti-cAMP labeled with Eu3+TBP-NHS Cryptate (supplied as part of the assay kit). The specific signal (i.e. energy transfer) is inversely proportional to the concentration of cAMP in the standard or sample.
(§2) Biological Example 1: CB-1 and CB-2 In Vitro Assay
(§3) Human CB1R (Cannabanoid receptor 1) was stably transfected in HEK-293 cells (DiscoveRx, cat: 93-0200C1). Human CB2R (Cannabanoid receptor 2) was stably transfected in HEK-293 cells (DiscoveRx, cat: 93-0201C1). Cell cultures were maintained in media: DMEM (Invitrogen Cat#12430-054) supplemented with 10% HI FBS (Invitrogen Cat#16140-071), 1% L-glutamine (Invitrogen Cat#25030-081), 0.2 mg/ml Hygromycin B (Invitrogen Cat#10687-010), 600 μg/mL G418 (Invitrogen Cat#10131-035), and 1×Penn/Strep (Invitrogen 15140-122). After cell expansion, aliquots were cryo-stored in media containing 5% DMSO (Pierce Cat#20684).
(§4) One day prior to experiments media was warmed to 37° C. and the cryo-stored cells were thawed in a 37° C. water bath. The cells were then added to media (10× volume) and the mixture was centrifugated at 1000 RPM for 5 min. The supernate was removed and the cells were re-suspended in media. A sample of the cell suspension was evaluated on a Cedex XS automated cell counter (Innovatis Systems) to determine viable cells/ml. Additional media was added to the cells to achieve a final cell density of 4E5 cells/mL. The cells were then plated into 384 well PDL white solid bottom plates (Greiner, Cat#781945) at 20 μL per well using a Multidrop (Thermo Scientific). Cells were removed from Row P (location of cAMP standards). Two columns of cells were plated into a clear bottom 384 well PDL coated plate (Greiner, Cat#781944) to view confluence the day of the assay. The cell plates were lidded and stored for 15 minutes in a hood, then transferred to an incubator (37° C., 5% CO2, 95% humidity) overnight.
(§5) DMSO was added to all wells of 384 well V bottom polystyrene plate (Greiner, Cat#781280) except to columns 1 and 13, rows O and P and wells M13-M23 and N13-N23. Test compounds (60 μL, 10 mM) were added to Column 1 and 13 (A1 through N1 and A13 through L13). Test compounds were serially diluted 1/3 by transferring and mixing 20 μl sample with 40 μL DMSO.
(§6) DMSO (40 μL) was added to wells of 384 well V bottom polystyrene plate: O2 through O11, M14 through M23, N14 through N23, and O14 through O23. AM630 (also known as [6-iodo-2-methyl-1-[2-(4-morpholinyl)ethyl]-1H-indol-3-yl](4-methoxyphenyl)-methanone, Cayman Chemical, Cat#10006974) (60 μL, 10 mM) was added to O1; and 1-(2,4-dichlorophenyl)-7-[(4-fluorophenyl)methylene]-4,5,6,7-tetrahydro-N-1-piperidinyl-1H-indazole-3-carboxamide (60 μL, 10 mM) was added to N13. The control was serially diluted 1/3 by transferring and mixing 20 μl sample with 40 μL DMSO. This process resulted 11 doses per control, 10 mM to […].
(§7) Cells plated the day prior to the assay in clear bottom plates were viewed on an inverse microscope to ensure confluency in the range of 60-75%. […]

[2] = target: Human CB2R (Cannabanoid receptor 2) (Homo sapiens (Human), UniProt P34972); assay: CB-2 in vitro cAMP (HTRF) assay; format: cell-based; conditions: HEK-293 cells stably transfected with human CB2R, 250 nM Forskolin, mean where tested more than once
Chain of Human CB2R (Cannabanoid receptor 2) (P34972 whole entry): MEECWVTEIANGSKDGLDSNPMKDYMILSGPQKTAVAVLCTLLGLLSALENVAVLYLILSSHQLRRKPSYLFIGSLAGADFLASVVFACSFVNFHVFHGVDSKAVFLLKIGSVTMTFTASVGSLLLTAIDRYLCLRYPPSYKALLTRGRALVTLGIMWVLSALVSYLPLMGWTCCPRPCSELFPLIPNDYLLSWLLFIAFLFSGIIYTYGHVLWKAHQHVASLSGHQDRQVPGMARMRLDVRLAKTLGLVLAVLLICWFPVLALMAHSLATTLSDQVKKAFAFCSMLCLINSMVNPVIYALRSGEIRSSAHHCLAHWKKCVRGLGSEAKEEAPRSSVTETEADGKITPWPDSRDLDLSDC
Source text: as §1, §2, §3, §4, §5, §6, §7

Chain of Human CB1R (Cannabanoid receptor 1) (P21554 whole entry): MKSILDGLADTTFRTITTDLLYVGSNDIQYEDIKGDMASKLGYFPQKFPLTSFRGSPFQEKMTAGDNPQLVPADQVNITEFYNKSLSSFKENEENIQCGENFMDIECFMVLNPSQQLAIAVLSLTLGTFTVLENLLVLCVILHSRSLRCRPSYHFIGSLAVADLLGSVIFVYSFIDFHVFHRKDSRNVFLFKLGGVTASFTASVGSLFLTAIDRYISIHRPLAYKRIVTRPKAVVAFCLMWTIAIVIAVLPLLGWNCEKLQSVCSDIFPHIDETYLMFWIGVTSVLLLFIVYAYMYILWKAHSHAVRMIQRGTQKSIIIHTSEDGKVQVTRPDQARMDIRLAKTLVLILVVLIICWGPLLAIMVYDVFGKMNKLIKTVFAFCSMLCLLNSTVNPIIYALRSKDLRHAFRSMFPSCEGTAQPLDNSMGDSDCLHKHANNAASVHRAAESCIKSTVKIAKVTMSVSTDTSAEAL

Compound | EC50 [1] [nM] | EC50 [2] [nM]
Clc1ccc(C(c2ccc(Cl)cc2)c2ccc3nncc(NCCc4ccccc4)c3c2)cc1 [Compound 25, 6-(bis(4-chlorophenyl)methyl)-N-phenethylcinnolin-4-amine] | 35 | 2460
O=S(=O)(N1CCC(Nc2cnnc3ccc(C(c4ccc(Cl)cc4)c4ccc(Cl)cc4)cc23)C1)C(F)(F)F (stereo not shown) [Compound 26, 6-(bis(4-chlorophenyl)methyl)-N-(1-(trifluoromethylsulfonyl)pyrrolidin-3-yl)cinnolin-4-amine] | 95 | 1930
O=S(=O)(c1ccccc1)N1CCC(Nc2cnnc3ccc(C(c4ccc(Cl)cc4)c4ccc(Cl)cc4)cc23)C1 (stereo not shown) [Compound 27, 6-(bis(4-chlorophenyl)methyl)-N-(1-(phenylsulfonyl)pyrrolidin-3-yl)cinnolin-4-amine] | 272 | 849
Clc1ccc(C(c2ccc(Cl)cc2)c2ccc3nncc(NC4CCN(Cc5ccccc5)C4)c3c2)cc1 (stereo not shown) [Compound 28, N-(1-benzylpyrrolidin-3-yl)-6-(bis(4-chlorophenyl)methyl)cinnolin-4-amine] | 1690 | > 10000
Clc1ccc(C(c2ccc(Cl)cc2)c2ccc3nncc(N4CCC(Nc5ccccc5)CC4)c3c2)cc1 [Compound 29, 1-[6-[bis(4-chlorophenyl)methyl]cinnolin-4-yl]-N-phenylpiperidin-4-amine] | 99 | > 10000
Clc1ccc(C(c2ccc(Cl)cc2)c2ccc3nncc(NC4CCN(CCc5ccccc5)CC4)c3c2)cc1 [Compound 30, 6-(bis(4-chlorophenyl)methyl)-N-(1-phenethylpiperidin-4-yl)cinnolin-4-amine] | 643 | > 10000
O=C(O)c1ccc(CCN2CCC(Nc3cnnc4ccc(C(c5ccc(Cl)cc5)c5ccc(Cl)cc5)cc34)CC2)cc1 [Compound 31, 4-(2-(4-(6-(bis(4-chlorophenyl)methyl)cinnolin-4-ylamino)piperidin-1-yl)ethyl)benzoic acid] | 6640 | > 10000
O=C(O)c1csc(S(=O)(=O)N2CCC(Nc3cnnc4ccc(C(c5ccc(Cl)cc5)c5ccc(Cl)cc5)cc34)CC2)c1 [Compound 32, 5-[4-([6-[bis(4-chlorophenyl)methyl]cinnolin-4-yl]amino)piperidine-1-sulfonyl]thiophene-3-carboxylic acid] | 40 | 1980
O=S(=O)(N1CCC(Nc2cnnc3ccc(C(c4ccc(F)cc4)c4ccc(F)cc4)cc23)CC1)C(F)(F)F [Compound 33, 6-(bis(4-fluorophenyl)methyl)-N-(1-(trifluoromethylsulfonyl)piperidin-4-yl)cinnolin-4-amine] | 79 | 4700
O=S(=O)(N1CCC(Nc2cnnc3ccc(C(c4ccc(F)cc4)c4ccc(Cl)cc4)cc23)CC1)C(F)(F)F (stereo not shown) [Compound 34, 6-((4-chlorophenyl)(4-fluorophenyl)methyl)-N-(1-(trifluoromethylsulfonyl)piperidin-4-yl)cinnolin-4-amine] | 30 | > 10000
COc1ccc(C(c2ccc(Cl)cc2)c2ccc3nncc(NC4CCN(S(=O)(=O)C(F)(F)F)CC4)c3c2)cc1 (stereo not shown) [Compound 35, 6-((4-chlorophenyl)(4-methoxyphenyl)methyl)-N-(1-(trifluoromethylsulfonyl)piperidin-4-yl)cinnolin-4-amine] | 11 | 396
O=S(=O)(N1CCC(Nc2cnnc3ccc(C(c4ccc(Cl)cc4)c4nccs4)cc23)CC1)C(F)(F)F (stereo not shown) [Compound 36, 6-((4-chlorophenyl)(thiazol-2-yl)methyl)-N-(1-(trifluoromethylsulfonyl)piperidin-4-yl)cinnolin-4-amine] | 28 | 665
O=C(O)c1ccc(CCNc2cnnc3ccc(C(c4ccc(Cl)cc4)c4ccc(Cl)cc4)cc23)cc1 [Compound 37, 4-(2-(6-(bis(4-chlorophenyl)methyl)cinnolin-4-ylamino)ethyl)benzoic acid] | 5400 | 2790
O=C(O)c1cccc(CCNc2cnnc3ccc(C(c4ccc(Cl)cc4)c4ccc(Cl)cc4)cc23)c1 [Compound 38, 3-(2-(6-(bis(4-chlorophenyl)methyl)cinnolin-4-ylamino)ethyl)benzoic acid] | 4500 | 3980
